From patent publication US11173166B2, “Composition and uses thereof” (BH Biotech Pty Ltd, priority 2017, dated 2021)

Experiments:
NLRP3 inflammasome = NLRP3 inflammasome (Homo sapiens, UniProt Q96P20); experiment: THP-1 NLRP3 inflammasome assay (LPS priming plus ATP stimulation, IL-1β ELISA), with Chou-Talalay CI analysis; details: for inhibition of NLRP3 inflammasome activation (IL-1β production), in words: single agent, THP-1 primed with LPS, stimulated with ATP
Experimental: Absorbance data obtained from the ELISA assays was transformed into relative inhibition using Microsoft Excel. Dose-response curves and statistical analyses were generated using GraphPad Prism software. To generate dose-response curves, first the dose was transformed into Log10, then curves were generated using the non-linear regression option log[inhibitor] vs response-variable slope (four parameter). Statistical comparisons between treatment and control groups were performed using One Way ANOVA with GraphPad Prism statistical software.
The latest version of CompuSyn software was used to analyse data and generate CI and graphical representations of drug-drug interactions.
Monocytes were first primed for three hours with 100 nM LPS, then stimulated with ATP.

[1] = Solubility behaviour in the cell-based assay system / aqueous solution
Text: The interaction between ashwagandha and turmeric plant extracts was studied. […] To overcome this experimental limitation low doses at approximately the Fa 0.2 range were focused on, and the mean relative inhibition values of the single extract versus the ashwagandha plus turmeric plant extract combination were compared.
The combination of turmeric and pepper (Piper nigrum) plant extracts was investigated.

NLRP3 inflammasome, sequence (Q96P20 whole entry): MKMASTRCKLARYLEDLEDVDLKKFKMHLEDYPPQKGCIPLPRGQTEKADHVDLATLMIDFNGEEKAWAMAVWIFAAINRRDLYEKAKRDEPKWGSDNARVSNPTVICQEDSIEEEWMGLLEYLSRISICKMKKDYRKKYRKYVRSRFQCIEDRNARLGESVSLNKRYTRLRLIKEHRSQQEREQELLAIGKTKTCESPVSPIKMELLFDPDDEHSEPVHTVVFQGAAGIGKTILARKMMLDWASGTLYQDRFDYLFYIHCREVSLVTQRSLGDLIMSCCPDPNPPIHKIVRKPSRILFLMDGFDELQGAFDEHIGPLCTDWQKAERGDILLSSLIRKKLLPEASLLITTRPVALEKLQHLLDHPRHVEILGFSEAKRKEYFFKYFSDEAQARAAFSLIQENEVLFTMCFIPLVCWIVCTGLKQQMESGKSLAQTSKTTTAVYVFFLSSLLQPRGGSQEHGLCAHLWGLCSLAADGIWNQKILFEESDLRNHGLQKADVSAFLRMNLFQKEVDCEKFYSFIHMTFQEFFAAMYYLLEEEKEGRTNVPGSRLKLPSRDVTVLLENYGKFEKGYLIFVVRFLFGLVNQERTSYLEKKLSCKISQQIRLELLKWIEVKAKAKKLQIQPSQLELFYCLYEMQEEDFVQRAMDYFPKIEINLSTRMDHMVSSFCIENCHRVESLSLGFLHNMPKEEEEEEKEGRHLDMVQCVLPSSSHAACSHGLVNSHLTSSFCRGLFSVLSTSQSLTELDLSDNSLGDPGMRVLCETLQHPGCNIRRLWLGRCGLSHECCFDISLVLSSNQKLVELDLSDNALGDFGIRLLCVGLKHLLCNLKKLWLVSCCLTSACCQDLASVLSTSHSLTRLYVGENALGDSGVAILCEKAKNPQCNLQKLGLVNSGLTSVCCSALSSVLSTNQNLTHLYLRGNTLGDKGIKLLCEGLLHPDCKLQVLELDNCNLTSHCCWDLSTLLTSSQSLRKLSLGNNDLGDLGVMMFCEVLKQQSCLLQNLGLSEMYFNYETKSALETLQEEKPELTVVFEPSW

Row | interaction in drug combination experiments (polynonogram) (NLRP3 inflammasome; combined with withaferin A, curcumin and piperine) | solubility behaviour [1] | inflammasome inhibition, highest observed (NLRP3 inflammasome; limited because compound came out of solution at higher doses) [%] | SMILES | efficacy relative to vehicle control (ANOVA) (NLRP3 inflammasome; low dose: below Fa 0.4 for pure compounds, approximately Fa 0.2 for extracts) | inhibition of NLRP3 inflammasome activation (IL-1β production), in words (NLRP3 inflammasome)
1 |  |  |  | CC1=C(CO)C(=O)O[C@@H]([C@@H](C)[C@H]2CC[C@H]3[C@@H]4C[C@H]5O[C@]56[C@@H](O)C=CC(=O)[C@]6(C)[C@H]4CC[C@]23C)C1 [withaferin A] | efficacious relative to vehicle control | inhibit NLRP3 inflammasome activity
2 | striking antagonism |  |  | COc1cc(C2Oc3cc([C@H]4Oc5cc(O)cc(O)c5C(=O)[C@@H]4O)ccc3OC2CO)ccc1O (stereo partly drawn) [silybin] |  | effectively inhibiting inflammation
3 |  | came out of solution at the higher doses | ≤ 35 | O=C(/C=C/C=C/c1ccc2c(c1)OCO2)N1CCCCC1 [piperine] |  | 
